Reference: patent US20250255876A1, “COMPOSITIONS AND METHODS FOR CANCER TREATMENT” (ARIEL SCIENTIFIC INNOVATIONS LTD., priority 2021, published 2025)
Entries after “also recorded” stand apart in the source; their conditions may differ.

System: B16F10 cells
Test: B16F10 subcutaneous tumor in C57BL mice, intratumoral injection
Type: in vivo, mouse
Description: FIGS. 17A-17E are micrographs and graphs showing that C#3 prevents tumor growth. 2*106 B16F10 cells were injected to the left flank of C57BL mice. After three days different treatments, as indicated, were injected to the newly formed tumor. (17A) tumor size (mm3) was measured daily for each mouse. In the co-treatment, almost no change in tumor size was observed, in the first three days. (17B) representative images of three tumors from each treatment group. (17C) For each treatment the fold-change in the volume of each day was compared to day 0. […] (17D) The co-treated group presented less developed tumors, which comprised about 2-3% of mice weight. (17E) H&E staining of a representative tumor from each group. Number of mice for each group in this experiment: DMSO n=7, cisplatin n=10, cisplatin+c #3 n=10, c #3 n=9. SD=1. P-values were calculated by one-tailed t-test. C#3 prevents tumor growth. To test the effect of c #3 in-vivo, we used a […] mouse model of C57BL mice. B16F10 cells were injected to the mouse's left flank and allowed to form a subcutaneous tumor. Next, we injected directly to the tumor DMSO, cisplatin, cisplatin+c #3 1 mg/kg, or c #3 alone, and tumor size was measured each day, up to 6 days. […] DNA damage burden in these fast-growing tumors is high, and TLS inhibition using c #3 prevents repair and enhances cell death. […]

Structure (SMILES): Cc1oc(-c2ccco2)nc1CC(=O)N[C@@H](C(=O)O)c1ccccc1 [Compound 3]
- tumor growth (tumor volume, fold-change), co-treatment (cisplatin 1 mg/kg + c #3 1 mg/kg injected into the tumor, listed as c #3): prevented tumor growth in the first three days; also recorded: significant growth inhibition when compared to all treatments
- tumor histopathology (H&E), co-treatment (cisplatin + c #3 co-treated, two tumors from each group): severe necrosis
